The target in experiment [1] is Recombinant PRC2 (EZH2-Y641F) (Homo sapiens (Human), UniProt Q15910, Y641F). The experiment can be described thus: In vitro methyltransferase activity assay (LANCE Ultra). Format: biochemical. As to conditions: for IC50: 2.5 μM SAM/250 nM H3(1-50)K27me1, 3 hours, room temperature. Here is the method: Recombinant PRC2 (EZH2-Y641F) was purchased from Active motif, S-adenosyl-methionine (SAM) and Poly-L-lysine (PLL) were purchased from Sigma-Aldrich, and H3(1-50)K27me1 peptide was purchased from Cisbio. LANCEUltrasystem (Perkinelmer) was used for detection system. In the enzyme activity test, compounds to be tested were diluted by 8 gradient points in a ratio of 1:3, and added into each well in a reaction plate, and 100 ng recombinase was added, followed by a buffer [20 mM Tris pH8.5, 2 mM MgCl2, 0.01% Tween-20, 1 mM TCEP] containing 2.5 μM SAM/250 nM H3 (1-50)K27me1 premixtures. Enzymatic reaction thus began at room temperature. After reacted for 3 hours, a detection solution premixed with PLL, detection antibody and Ulight was added, and reacted for 1 hour at room temperature. The fluorescence value was then read on a Tecan infinite pro. IC50 was calculated by fitting in a four-factor model in the XLfit software.
On the technique in general: TR-FRET usually uses a lanthanide donor and a delayed reading to cut background.

A further experiment deals with Pfeiffer cells. Briefly: Cell proliferation assay (Cell counting kit-8, 6 days). It counts as cell-based. As to conditions: Pfeiffer (CRL-2632), 6 days culture. Here is the method:
The used cell lines Pfeiffer (CRL-2632), suDHL-6 (CRL-2959) and suDHL-10 (CRL-2963) were obtained from American Type Culture Collection (ATCC). All cell lines were cultured in RPMI-1640 medium (Gibco) containing 10% fetal bovine serum (Gibco). The cultured cells were harvested by centrifugation and the cell density was determined using a CounterStar cell counter. Appropriate number of cells were plated in a 96-well culture plate and incubated overnight. Compounds to be tested were diluted by 8 gradient points in a ratio of 1:3 and added into corresponding wells. After continuing to culture for 6 days, the number of viable cells was measured with Cell counting kit-8, and the absorbance value was read on Tecan infinite pro. The IC50 was calculated by fitting in a four-parameter model in the XLfit software.
(In general: Tetrazolium dyes change colour on reduction, which living cells bring about.)

Chain of Recombinant PRC2 (EZH2-Y641F) (Q15910 whole entry Y641F): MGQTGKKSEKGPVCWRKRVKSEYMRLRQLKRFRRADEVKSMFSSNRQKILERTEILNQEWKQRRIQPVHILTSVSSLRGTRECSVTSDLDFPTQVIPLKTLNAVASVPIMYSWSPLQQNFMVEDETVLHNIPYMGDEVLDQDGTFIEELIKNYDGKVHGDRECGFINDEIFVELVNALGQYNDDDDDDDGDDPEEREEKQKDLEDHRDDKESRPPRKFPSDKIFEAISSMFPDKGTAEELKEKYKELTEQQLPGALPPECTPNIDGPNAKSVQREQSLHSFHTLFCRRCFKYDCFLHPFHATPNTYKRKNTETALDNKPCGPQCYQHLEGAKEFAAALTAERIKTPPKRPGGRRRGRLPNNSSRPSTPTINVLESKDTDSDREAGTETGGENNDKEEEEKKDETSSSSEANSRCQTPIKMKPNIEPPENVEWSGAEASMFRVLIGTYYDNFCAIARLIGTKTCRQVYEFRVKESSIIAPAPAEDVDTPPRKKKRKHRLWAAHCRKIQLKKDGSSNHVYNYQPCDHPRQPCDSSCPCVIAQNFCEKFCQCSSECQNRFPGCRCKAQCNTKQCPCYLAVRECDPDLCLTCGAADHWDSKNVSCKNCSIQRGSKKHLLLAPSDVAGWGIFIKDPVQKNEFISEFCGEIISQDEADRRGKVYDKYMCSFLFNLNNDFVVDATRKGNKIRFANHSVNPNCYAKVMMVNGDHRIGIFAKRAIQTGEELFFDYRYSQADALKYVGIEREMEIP
Chain of Recombinant PRC2 (EZH2-Y641F) (O75530 whole entry partner): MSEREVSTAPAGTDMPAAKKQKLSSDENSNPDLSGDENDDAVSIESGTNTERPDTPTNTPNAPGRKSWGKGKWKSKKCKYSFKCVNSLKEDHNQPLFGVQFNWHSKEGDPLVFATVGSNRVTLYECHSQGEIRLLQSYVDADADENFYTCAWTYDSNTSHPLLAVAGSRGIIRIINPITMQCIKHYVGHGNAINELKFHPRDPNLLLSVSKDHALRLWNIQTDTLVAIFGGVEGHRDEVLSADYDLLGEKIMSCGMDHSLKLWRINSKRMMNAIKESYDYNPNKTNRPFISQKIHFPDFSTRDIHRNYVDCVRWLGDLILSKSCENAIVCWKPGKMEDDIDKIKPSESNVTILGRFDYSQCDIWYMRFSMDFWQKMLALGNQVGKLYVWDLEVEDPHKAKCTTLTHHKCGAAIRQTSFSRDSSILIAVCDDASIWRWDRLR
Chain of Recombinant PRC2 (EZH2-Y641F) (Q15022 whole entry partner): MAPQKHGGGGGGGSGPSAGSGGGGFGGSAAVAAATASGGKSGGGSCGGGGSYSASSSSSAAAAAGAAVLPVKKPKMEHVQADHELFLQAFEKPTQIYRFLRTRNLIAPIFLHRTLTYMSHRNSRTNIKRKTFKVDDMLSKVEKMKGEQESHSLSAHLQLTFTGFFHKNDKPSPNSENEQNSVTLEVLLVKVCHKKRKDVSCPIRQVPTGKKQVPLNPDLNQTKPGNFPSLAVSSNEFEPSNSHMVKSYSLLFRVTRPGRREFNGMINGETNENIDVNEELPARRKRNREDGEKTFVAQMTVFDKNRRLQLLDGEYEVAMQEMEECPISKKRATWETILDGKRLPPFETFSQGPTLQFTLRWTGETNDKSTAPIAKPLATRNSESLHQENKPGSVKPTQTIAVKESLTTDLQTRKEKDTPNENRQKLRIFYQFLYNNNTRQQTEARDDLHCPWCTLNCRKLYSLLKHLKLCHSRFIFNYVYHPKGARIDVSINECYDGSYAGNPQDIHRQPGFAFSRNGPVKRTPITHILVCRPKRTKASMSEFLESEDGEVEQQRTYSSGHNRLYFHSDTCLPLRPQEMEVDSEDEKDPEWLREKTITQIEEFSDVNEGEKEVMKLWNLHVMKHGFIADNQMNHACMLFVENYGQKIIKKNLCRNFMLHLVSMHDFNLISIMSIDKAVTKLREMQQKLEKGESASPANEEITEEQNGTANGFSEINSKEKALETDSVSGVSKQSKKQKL
Chain of Recombinant PRC2 (EZH2-Y641F) (Q09028 whole entry partner): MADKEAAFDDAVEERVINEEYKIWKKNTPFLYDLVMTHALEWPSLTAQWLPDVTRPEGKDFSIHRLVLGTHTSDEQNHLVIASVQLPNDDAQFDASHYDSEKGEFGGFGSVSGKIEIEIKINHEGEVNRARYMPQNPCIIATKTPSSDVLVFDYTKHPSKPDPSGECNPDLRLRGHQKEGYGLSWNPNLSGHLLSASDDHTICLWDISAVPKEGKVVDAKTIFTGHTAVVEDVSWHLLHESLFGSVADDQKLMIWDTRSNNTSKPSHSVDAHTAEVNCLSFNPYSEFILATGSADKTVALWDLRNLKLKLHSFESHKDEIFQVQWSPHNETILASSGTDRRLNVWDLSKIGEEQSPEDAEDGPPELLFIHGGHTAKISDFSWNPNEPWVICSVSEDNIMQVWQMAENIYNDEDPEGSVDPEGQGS
Chain of Recombinant PRC2 (EZH2-Y641F) (Q6ZN18 whole entry partner): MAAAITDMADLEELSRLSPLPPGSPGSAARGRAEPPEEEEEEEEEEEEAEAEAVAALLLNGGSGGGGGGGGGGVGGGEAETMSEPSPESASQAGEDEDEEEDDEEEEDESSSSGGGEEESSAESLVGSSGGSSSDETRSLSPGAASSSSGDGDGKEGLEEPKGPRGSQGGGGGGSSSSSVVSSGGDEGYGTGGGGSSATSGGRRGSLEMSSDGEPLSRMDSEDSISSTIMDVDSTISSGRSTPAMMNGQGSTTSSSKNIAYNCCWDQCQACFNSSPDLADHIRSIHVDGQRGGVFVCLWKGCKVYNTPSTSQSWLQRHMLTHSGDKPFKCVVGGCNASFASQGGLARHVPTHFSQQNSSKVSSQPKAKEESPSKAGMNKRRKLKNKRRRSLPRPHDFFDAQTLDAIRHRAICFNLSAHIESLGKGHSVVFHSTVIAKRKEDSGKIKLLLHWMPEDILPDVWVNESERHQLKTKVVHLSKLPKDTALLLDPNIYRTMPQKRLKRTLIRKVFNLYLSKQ

What is called IC50 is the midpoint of a concentration-inhibition curve. For `CCc1c(C(=O)NCc2c(OC)cc(C)[nH]c2=O)cc2c(cnn2C)c1N(CC)C1CCOCC1` [P-16, 5-ethyl-4-(ethyl(tetrahydro-2H-pyran-4-yl)amino)-N-((4-methoxy-6-methyl-2-oxo-1,2-dihydropyridin-3-yl)methyl)-1-methyl-1H-indazole-6-carboxamide], the IC50 in experiment [1] came out at 8 nM; with Pfeiffer cells (Homo sapiens, 144 h) it was 7 nM.
For `CCc1c(C(=O)NCc2c(C)cc(C)[nH]c2=O)cc2c(cnn2C)c1N(CC)C1CCOCC1` [P-17, N-((4,6-dimethyl-2-oxo-1,2-dihydropyridin-3-yl)methyl)-5-ethyl-4-(ethyl(tetrahydro-2H-pyran-4-yl)amino)-1-methyl-1H-indazole-6-carboxamide], the IC50 in experiment [1] worked out at 8 nM; with Pfeiffer cells (Homo sapiens, 144 h), 36 nM.
Regarding `CCc1c(C(=O)NCc2c(C)cc(C)[nH]c2=O)cc2c(cnn2C)c1N(CC)C1CCC(N2CC(C)C2)CC1` [P-18, N-((4,6-dimethyl-2-oxo-1,2-dihydropyridin-3-yl)methyl)-5-ethyl-4-(ethyl((1S,4S)-4-(3-methylazetiazin-1-yl)cyclohexyl)amino)-1-methyl-1H-indazole-6-carboxamide], the IC50 in experiment [1] was found to be 12 nM; in the experiment on Pfeiffer cells, 7 nM.
The like results for `CCc1c(C(=O)NCc2c(C)cc(C)[nH]c2=O)cc2c(cnn2C)c1N(CC)[C@H]1CC[C@H](N2CC(OC)C2)CC1` [P-19] were, in that order, 45 nM and 76 nM.
Take `CCc1c(C(=O)NCc2c(C)cc(C)[nH]c2=O)cc2c(cnn2C)c1N(CC)C1CCC(N(C)CCOC)CC1` [P-20, N-((4,6-dimethyl-2-oxo-1,2-dihydropyridin-3-yl)methyl)-5-ethyl-4-(ethyl((1S, 4S)-4-((2-methoxyethyl)(methyl)amino)cyclohexyl)amino)-1-methyl-1H-indazole-6-carboxamide]: the IC50 in experiment [1] was 18 nM; in the experiment with Pfeiffer cells it was 31 nM.
`CCc1c(C(=O)NCc2c(OC)cc(C)[nH]c2=O)cc2c(cnn2C)c1N(C)[C@H]1CC[C@H](N(C)CCOC)CC1` [P-21, 5-ethyl-4-(methyl((1R, 4R)-4-((2-methoxyethyl) (methyl)amino)cyclohexyl)amino)-N-((4-methoxy-6-methyl-2-oxo-1,2-dihydropyridin-3-yl)methyl)-1-methyl-1H-indazole-6-carboxamide]: the IC50 in experiment [1] worked out at 14 nM; with Pfeiffer cells it was 32 nM.
Regarding `CCc1c(C(=O)NCc2c(OC)cc(C)[nH]c2=O)cc2c(cnn2C)c1N(CC)C1CCC(N(C)C)CC1` (centres unmarked) [P-22, 4-((4-(dimethylamino)cyclohexyl)(ethyl)amino)-5-ethyl-N-((4-methoxy-6-methyl-2-oxo-1,2-dihydropyridin-3-yl)methyl) 1-methyl-1H-indazole-6-carboxamide], the figures for the IC50 (in experiment [1]; in the experiment with Pfeiffer cells) were 5 nM and 66 nM, respectively.
In the case of `CCc1c(C(=O)NCc2c(C)cc(C)[nH]c2=O)cc2c(cnn2C)c1N(CC)C1CCC(N(C)C)CC1` (centres unmarked) [P-23], the IC50 in experiment [1] came out at 5 nM; with Pfeiffer cells (Homo sapiens, 144 h), 25 nM.
`CCc1c(C(=O)NCc2c(C)cc(C)[nH]c2=O)cc2c(cnn2C)c1N(CC)C1CCC(N2CCOCC2)CC1` (centres unmarked) [P-24]: the IC50 in experiment [1] came to 9 nM; in the experiment on Pfeiffer cells (Homo sapiens, 144 h), 169 nM.
Turning to `CCc1c(C(=O)NCc2c(C)cc(C)[nH]c2=O)cc2c(cnn2C)c1N(CC)C1CCC(NC(F)(F)F)CC1` (centres unmarked) [P-25], the concentration for half-maximal inhibition (IC50) came out at 46 nM in experiment [1] and 278 nM with Pfeiffer cells (Homo sapiens, 144 h).
Regarding `CCN(c1c(C)c(C(=O)NCc2c(C)cc(C)[nH]c2=O)cc2c1cnn2C)C1CCC(CN(C)C)CC1` (centres unmarked) [P-26], the IC50 is 8 nM in experiment [1] and 48 nM in the experiment with Pfeiffer cells (Homo sapiens, 144 h).
In the case of `CCN(c1c(C#N)c(C(=O)NCc2c(C)cc(C)[nH]c2=O)cc2c1cnn2C)C1CCOCC1` [P-27], the IC50 was 1750 nM in experiment [1] and above 10000 nM with Pfeiffer cells (Homo sapiens, 144 h).
As to `CCN(c1c(C2CC2)c(C(=O)NCc2c(C)cc(C)[nH]c2=O)cc2c1cnn2C)C1CCOCC1` [P-28], the IC50 was 402 nM in experiment [1] and 702 nM in the experiment with Pfeiffer cells (Homo sapiens, 144 h).
On the same counts, the results for `CCc1c(C(=O)NCc2c(C)cc(C)[nH]c2=O)cc2c(cnn2C)c1N(CC)C1CCC(N2CCNCC2)CC1` (centres unmarked) [P-29] are 34 nM and 191 nM.
As for `CCc1c(C(=O)NCc2c(C)cc(C)[nH]c2=O)cc2c(cnn2C)c1N(CC)C1CCC(N2CCN(C)CC2)CC1` (centres unmarked) [P-30], the IC50 in experiment [1] was determined as 46 nM; in the experiment on Pfeiffer cells (Homo sapiens, 144 h), 201 nM.
As to `CCN(c1c(C)c(C(=O)NCc2c(C)cc(C)[nH]c2=O)cc2c1cnn2C)C1CCC(N2CC(F)(F)C2)CC1` (centres unmarked) [P-31], the IC50 in experiment [1] is 15 nM; in the experiment with Pfeiffer cells (Homo sapiens, 144 h), 130 nM.
Turning to `CCN(c1c(C)c(C(=O)NCc2c(C)cc(C)[nH]c2=O)cc2c1cnn2C)C1CCC(N2CCCCC2)CC1` (centres unmarked) [P-32], the IC50 amounted to 12 nM in experiment [1] and 59 nM in the experiment with Pfeiffer cells (Homo sapiens, 144 h).
With `CCN(c1c(C)c(C(=O)NCc2c(C)cc(C)[nH]c2=O)cc2c1cnn2C)C1CCC(N(C)CCN(C)C)CC1` (centres unmarked) [P-34], the IC50 in experiment [1] came out at 26 nM; in the experiment on Pfeiffer cells (Homo sapiens, 144 h), 196 nM.
`CCc1c(C(=O)NCc2c(C)cc(C)[nH]c2=O)cc2c(cnn2C)c1N(CC)C1CCC(N2CC(OCC(F)(F)F)C2)CC1` (centres unmarked) [P-36]: the IC50 in experiment [1] worked out at 13 nM; in the experiment on Pfeiffer cells (Homo sapiens, 144 h) it was 3 nM.
As to `CCN(c1c(C)c(C(=O)NCc2c(C)cc(C)[nH]c2=O)cc2c1cnn2C)C1CCC(N2CC(OCC(F)(F)F)C2)CC1` (centres unmarked) [P-37], the IC50 in experiment [1] was 12 nM; in the experiment on Pfeiffer cells (Homo sapiens, 144 h) it was 297 nM.
For the molecule `CCOC1CN(C2CCC(N(CC)c3c(CC)c(C(=O)NCc4c(C)cc(C)[nH]c4=O)cc4c3cnn4C)CC2)C1` (centres unmarked) [P-39], the IC50 in experiment [1] is 7 nM; with Pfeiffer cells (Homo sapiens, 144 h), 5 nM.
With `CCN(c1c(C)c(C(=O)NCc2c(C)cc(C)[nH]c2=O)cc2c1c(F)nn2C)C1CCOCC1` [P-41], the IC50 in experiment [1] came to 425 nM; in the experiment on Pfeiffer cells (Homo sapiens, 144 h), 2000 nM. For the same molecule, the “inhibitory activity against the enzyme (in words)” value in experiment [1] (SAR comment on Table 1, reduced relative to comparator compounds (P-7, P-13/14)) was “greatly reduced”.
Turning to `CCN(c1ccc(CN(C)C)cc1)c1c(C)c(C(=O)NCc2c(C)cc(C)[nH]c2=O)cc2c1cnn2C` [P-43], the IC50 in experiment [1] turned out to be 33 nM; in the experiment with Pfeiffer cells (Homo sapiens, 144 h), 123 nM.
Take `CCN(c1c(C)c(C(=O)NCc2c(C)cc(C)[nH]c2=O)cc2c1cnn2C)C1CCC(N(C)CC(F)(F)F)CC1` (centres unmarked) [P-44, N-((4,6-dimethyl-2-oxo-1,2-dihydropyridin-3-yl)methyl)-4-(ethyl(4-(methyl(2,2,2-trifluoroethyl)amino)cyclohexyl)amino)-1,5-dimethyl-1H-indazole-6-carboxamide]: the IC50 in experiment [1] came to 60 nM; in the experiment on Pfeiffer cells (Homo sapiens, 144 h), 300 nM.
With `CCc1c(C(=O)NCc2c(C)cc(C)[nH]c2=O)cc2c(cnn2C)c1N(CC)C1CCC(N2CC(O)C2)CC1` (centres unmarked) [P-47, N-((4,6-dimethyl-2-oxo-1,2-dihydropyridin-3-yl)methyl)-5-ethyl-4-(ethyl(4-(3-hydroxyazetidin-1-yl)cyclohexyl)amino)-1-methyl-1H-indazole-6-carboxamide], the IC50 in experiment [1] is 7 nM; with Pfeiffer cells (Homo sapiens, 144 h), 178 nM.
On the same counts, the results for `CCN(c1c(C)c(C(=O)NCc2c(C)cc(C)[nH]c2=O)cc2c1cnn2C)C1CCN(C2COC2)CC1` [P-48, N-((4,6-dimethyl-2-oxo-1,2-dihydropyridin-3-yl)methyl)-4-(ethyl(1-(oxetane-3-yl)piperidin-4-yl)amino)-1,5-dimethyl-1H-indazole-6-carboxamide] are 49 nM and 305 nM.
